In patent publication US5677276A, “Immobilization of peptides to hyaluronate” (La Jolla Cancer Research Foundation, priority 1995, dated 1997):
Square brackets hold non-standard residues; d marks the D form. Ends that are not written are not given here.

Tests used:
cells = assay: Standard cell attachment assay; assay type: cell-based; set-up: key: + = positive cell attachment; - = no cell attachment; conditions: for CELL ATTACHMENT ASSAY RESULTS, SODIUM PERIODATE: peptide coupled to HA by sodium periodate method; for CELL ATTACHMENT ASSAY RESULTS, TRESYL CHLORIDE: peptide coupled to HA by tresyl chloride method; for CELL ATTACHMENT ASSAY RESULTS, BDDE: peptide coupled to HA by epoxide (BDDE) method
Experimental: The conjugates prepared by the above described methods, as well as conjugates containing other RGD-peptide sequences, were tested for cell attachment using the following procedures.
New subcultures are made the day before the assay and allowed to grow to 75-80% confluency. When a 100×20 mm dish was 80-90% confluent the cells were detached by adding 4 ml of trypsin/EDTA. When the cells become rounded they are suspended by adding 6 ml of complete media to the 4 ml of trypsin/EDTA (10 ml total). Forty to fifty percent of the cell suspensions were transferred to a new 100×20 mm dish and cultured as usual. One 100×20 mm dish is sufficient to perform 6 cell attachments.
Samples to be tested are placed in 0.5 ml blocking solution (HBSS, 3% BSA, 25 mM Hepes pH 7.0) until needed. Each 100×20 mm dish was trypsinized using 4 ml of trypsin/EDTA for approximately 10 minutes or until cells were easily detached. Cells should not be detached too soon or they will remain aggregated during the cell attachment assay. It is desirable to obtain a good single cell suspension. If clumps of cells are observed let them settle out before using and adjust for the loss of cells in the assay.
The cells were detached from the plate using 6 ml of serum free media (SFM) supplemented with ITS+ (Insulin Transferrin Selenium (Collaborative Research, Inc., Bedford, Mass.), SFM+ITS+=SFM+) for a total volume of 10 ml (4 ml of trypsin/EDTA+6 ml of SFM+). The cells were centrifuged one time to pellet the cells and then they were resuspended in 5 ml of soybean trypsin inhibitor (SBTI) diluted in SFM+. The cells were incubated in SBTI/SFM+ for 10 minutes in a 37° C. water bath. While trypsin was being inactivated, the blocking buyer was removed and the samples suspended in 1 ml of SFM+.
Cells were centrifuged 1 time to remove SBTI. Resuspended cells in 6 ml of SFM+ created a good single cell suspension. If necessary, the resuspended cells can sit on the bench for 5 minutes to let aggregates settle to the bottom before applying to the matrices. Approximately 1 ml of cell suspension per matrix (1-2 mg) was used. The matrix/cells were placed on a rocker in the incubator and cell attachment allowed to go for one to one and half hours. Thereafter, samples were transferred to a 12 well dish and washed 2 times with PBS using an orbital shaker. Neutral red solution (diluted 1:100) was added to PBS and incubated with the cells for 20 minutes on an orbital shaker. Two mls of stain/fix (PBS, 8% formaldehyde, crystal violet 0.0008%) was added and staining allowed to proceed for 2 hours at room temperature on the orbital shaker. Formaldehyde solution was removed and distilled water added. Cell attachment was assessed by microscopy.

[1] = system: full thickness wounds in guinea pigs; assay: Full thickness wounds in guinea pigs; assay type: in vivo, guinea pig; conditions: Alcian staining; for residence time in the wound bed: Epoxide (BDDE) method; for residence time: Sodium periodate method; for residence time in the dermal wound: Tresyl chloride method, BDDE cross-linked HA created at pH 6
Experimental: Following the procedures for the full thickness wound model in guinea pigs described in Cheng et al., Arch. Dermatol. 124:221-226 (1988), which is incorporated herein by reference, various peptide-HA conjugates prepared by the above-described methods were analyzed.
The residence times were determined by Alcian staining and were as follows: […]

Substance: Ac G R R R R R G G G R G D I P KNH2 (Ac-GRRRRRGGGRGDIPK-NH2; also: hyaluronate conjugate) [SEQ ID No. 13, RGD peptide, tested conjugated to hyaluronate (HA)]
- CELL ATTACHMENT ASSAY RESULTS, SODIUM PERIODATE (cells): +
- CELL ATTACHMENT ASSAY RESULTS, TRESYL CHLORIDE (cells): +

Substance: Ac G dR dR dR dR dR G G G dR G D S P A S S K (Ac-G[dR][dR][dR][dR][dR]GGG[dR]GDSPASSK; also: hyaluronate conjugate) [SEQ ID No. 5, RGD peptide, tested conjugated to hyaluronate (HA)]
- residence time in the wound bed [1]: 7 to 10 days
- residence time [1]: 7 to 10 days
- residence time in the dermal wound [1]: 10 to 14 days
- CELL ATTACHMENT ASSAY RESULTS, BDDE (cells): +
- CELL ATTACHMENT ASSAY RESULTS, SODIUM PERIODATE (cells): +

Substance: Ac R R G R G D I P KNH2 (Ac-RRGRGDIPK-NH2; also: hyaluronate conjugate) [SEQ ID No. 14, RGD peptide, tested conjugated to hyaluronate (HA)]
- CELL ATTACHMENT ASSAY RESULTS, SODIUM PERIODATE (cells): -
- CELL ATTACHMENT ASSAY RESULTS, TRESYL CHLORIDE (cells): +

Substance: Ac R R R G G R G D I P KNH2 (Ac-RRRGGRGDIPK-NH2; also: hyaluronate conjugate) [SEQ ID No. 6, RGD peptide, tested conjugated to hyaluronate (HA)]
- CELL ATTACHMENT ASSAY RESULTS, BDDE (cells): +
- CELL ATTACHMENT ASSAY RESULTS, SODIUM PERIODATE (cells): -
- CELL ATTACHMENT ASSAY RESULTS, TRESYL CHLORIDE (cells): +

Substance: G R R G R R G R G D I P TNH2 (GRRGRRGRGDIPT-NH2; also: hyaluronate conjugate) [SEQ ID No. 18, RGD peptide, tested conjugated to hyaluronate (HA)]
- CELL ATTACHMENT ASSAY RESULTS, BDDE (cells): -
- CELL ATTACHMENT ASSAY RESULTS, SODIUM PERIODATE (cells): +

Substance: G R R G R R G R G D TNH2 (GRRGRRGRGDT-NH2; also: hyaluronate conjugate) [SEQ ID No. 19, RGD peptide, tested conjugated to hyaluronate (HA)]
- residence time [1]: 7 to 10 days

Substance: G R R R G G G R G D I P TNH2 (GRRRGGGRGDIPT-NH2; also: hyaluronate conjugate) [SEQ ID No. 8, RGD peptide, tested conjugated to hyaluronate (HA)]
- CELL ATTACHMENT ASSAY RESULTS, BDDE (cells): +
- CELL ATTACHMENT ASSAY RESULTS, SODIUM PERIODATE (cells): -
- CELL ATTACHMENT ASSAY RESULTS, TRESYL CHLORIDE (cells): +

Substance: G R R R G G R G D I P TNH2 (GRRRGGRGDIPT-NH2; also: hyaluronate conjugate) [SEQ ID No. 9, RGD peptide, tested conjugated to hyaluronate (HA)]
- CELL ATTACHMENT ASSAY RESULTS, BDDE (cells): +
- CELL ATTACHMENT ASSAY RESULTS, SODIUM PERIODATE (cells): -
- CELL ATTACHMENT ASSAY RESULTS, TRESYL CHLORIDE (cells): +

Substance: G R R R G G R G D I PNH2 (GRRRGGRGDIP-NH2; also: hyaluronate conjugate) [SEQ ID No. 7, RGD peptide, tested conjugated to hyaluronate (HA)]
- CELL ATTACHMENT ASSAY RESULTS, BDDE (cells): +
- CELL ATTACHMENT ASSAY RESULTS, SODIUM PERIODATE (cells): -
- CELL ATTACHMENT ASSAY RESULTS, TRESYL CHLORIDE (cells): +

Substance: G R R R R G G G R G D I P TNH2 (GRRRRGGGRGDIPT-NH2; also: hyaluronate conjugate) [SEQ ID No. 4, RGD peptide, tested conjugated to hyaluronate (HA)]
- CELL ATTACHMENT ASSAY RESULTS, BDDE (cells): +
- CELL ATTACHMENT ASSAY RESULTS, SODIUM PERIODATE (cells): +
- CELL ATTACHMENT ASSAY RESULTS, TRESYL CHLORIDE (cells): +

Substance: G R R R R R G G G R G D I PNH2 (GRRRRRGGGRGDIP-NH2; also: hyaluronate conjugate) [SEQ ID No. 12, RGD peptide, tested conjugated to hyaluronate (HA)]
- residence time [1]: 7 to 10 days
- CELL ATTACHMENT ASSAY RESULTS, SODIUM PERIODATE (cells): +
- CELL ATTACHMENT ASSAY RESULTS, TRESYL CHLORIDE (cells): +

Substance: G R R R R R G G R G D I P TNH2 (GRRRRRGGRGDIPT-NH2; also: hyaluronate conjugate) [SEQ ID No. 3, RGD peptide, tested conjugated to hyaluronate (HA)]
- CELL ATTACHMENT ASSAY RESULTS, BDDE (cells): +
- CELL ATTACHMENT ASSAY RESULTS, SODIUM PERIODATE (cells): +
- CELL ATTACHMENT ASSAY RESULTS, TRESYL CHLORIDE (cells): +

Substance: G R R R R R G R G D I P TNH2 (GRRRRRGRGDIPT-NH2; also: hyaluronate conjugate) [SEQ ID No. 2, RGD peptide, tested conjugated to hyaluronate (HA)]
- CELL ATTACHMENT ASSAY RESULTS, BDDE (cells): +
- CELL ATTACHMENT ASSAY RESULTS, SODIUM PERIODATE (cells): +
- CELL ATTACHMENT ASSAY RESULTS, TRESYL CHLORIDE (cells): +

Substance: G dR dR dR dR dR G G G dR G D S P A S S K (G[dR][dR][dR][dR][dR]GGG[dR]GDSPASSK; also: hyaluronate conjugate) [SEQ ID No. 1, RGD peptide, tested conjugated to hyaluronate (HA)]
- residence time in the wound bed [1]: 7 to 10 days
- residence time [1]: at least 30 days
- residence time in the dermal wound [1]: 10 to 14 days
- CELL ATTACHMENT ASSAY RESULTS, BDDE (cells): +
- CELL ATTACHMENT ASSAY RESULTS, SODIUM PERIODATE (cells): +
- CELL ATTACHMENT ASSAY RESULTS, TRESYL CHLORIDE (cells): +

Substance: R R R G R G D I P TNH2 (RRRGRGDIPT-NH2; also: hyaluronate conjugate) [SEQ ID No. 11, RGD peptide, tested conjugated to hyaluronate (HA)]
- CELL ATTACHMENT ASSAY RESULTS, BDDE (cells): +

Substance: R R R R G R G D I P TNH2 (RRRRGRGDIPT-NH2; also: hyaluronate conjugate) [SEQ ID No. 10, RGD peptide, tested conjugated to hyaluronate (HA)]
- CELL ATTACHMENT ASSAY RESULTS, BDDE (cells): +
- CELL ATTACHMENT ASSAY RESULTS, SODIUM PERIODATE (cells): +
